# Reference: paper PMC5367156 (ACS chemical biology, 2016)
# Target: NRF2 (nuclear factor erythroid 2-related factor 2) (Homo sapiens, UniProt Q16236)
# Experiment: FP displacement of fluorescein-ARE DNA from purified NRF2-MAFG
# Type: binding
# NRF2 (nuclear factor erythroid 2-related factor 2), sequence (O15525 whole entry): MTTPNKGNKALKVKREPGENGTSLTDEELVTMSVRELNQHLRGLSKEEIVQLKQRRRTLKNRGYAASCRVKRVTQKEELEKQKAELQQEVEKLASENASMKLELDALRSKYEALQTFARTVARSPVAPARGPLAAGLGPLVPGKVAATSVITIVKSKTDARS
# NRF2 (nuclear factor erythroid 2-related factor 2), sequence (Q16236 whole entry): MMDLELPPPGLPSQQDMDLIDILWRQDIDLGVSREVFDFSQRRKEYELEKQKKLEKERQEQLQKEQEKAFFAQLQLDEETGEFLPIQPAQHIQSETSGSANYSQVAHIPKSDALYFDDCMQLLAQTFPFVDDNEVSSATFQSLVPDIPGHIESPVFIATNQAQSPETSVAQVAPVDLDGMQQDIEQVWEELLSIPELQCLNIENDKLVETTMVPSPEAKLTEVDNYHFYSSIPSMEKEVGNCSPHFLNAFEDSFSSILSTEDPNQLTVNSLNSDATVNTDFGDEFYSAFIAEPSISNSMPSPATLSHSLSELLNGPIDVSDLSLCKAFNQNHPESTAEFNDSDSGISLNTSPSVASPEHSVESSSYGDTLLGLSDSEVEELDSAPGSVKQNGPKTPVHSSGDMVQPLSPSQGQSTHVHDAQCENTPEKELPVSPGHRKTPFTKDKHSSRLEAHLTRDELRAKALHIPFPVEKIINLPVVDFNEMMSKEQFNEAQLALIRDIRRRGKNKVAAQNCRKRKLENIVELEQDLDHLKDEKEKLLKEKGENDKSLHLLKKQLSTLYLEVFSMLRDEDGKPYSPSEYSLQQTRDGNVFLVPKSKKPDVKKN
structure (smiles),measurement,value
"Cc1ccccc1C(=O)N1CCc2cc(-c3nc(NC(=O)Cc4ccc5c(c4)OCO5)sc3C)ccc21 [compound 2, ML385]",IC50,1.9 µM
